Experimental data from PubChem BioAssay AID1053168 (Broad Institute, 2014).
Activity calls are given as the source filed them. No rule for the calls is given here.

Assays:
[1] = test system: Vaccinia-infected cells, mCherry/Venus stage reporter fluorescence; assay: Vaccinia infected cells, stage specific inhibitors, mcherry venus reporter fluorescence, confirmatory dose response (AID 1053168)
[2] = as above; settings: Vaccinia-infected cells, mCherry/Venus stage reporter fluorescence
[3] = measured here: Venus reporter AC50
[4] = measured here: mCherry reporter AC50

Row | SMILES | AC50 [1, 4] [µM] | activity change, negative = inhibition ([2]; at 21 µM (top of the series)) | also measured
1 | C[C@H]1CN([C@@H](C)CO)S(=O)(=O)c2ccc(C#CC(C)(C)O)cc2O[C@H]1CN(C)Cc1ccc(-c2ccccc2)cc1 | 14.9 |  | AC50 [1]: 14.9 µM; AC50 [1, 3]: 16.6 µM
2 | C[C@@H]1CN([C@@H](C)CO)C(=O)Cc2cc(NC(=O)C3CCCCC3)ccc2O[C@H]1CN(C)C(=O)Nc1ccccc1 |  | -0.285% (inactive) | 
3 | CN1c2ccc(-c3ccc(C#N)cc3)cc2[C@@H]2[C@@H](CCN2C(=O)C2CCCCC2)[C@H]1CO |  | -26% (inactive) | AC50 [1, 3]: > 42 µM
4 | CCCNC(=O)N(C)C[C@@H]1Oc2ncc(C#CC3CCCCC3)cc2C(=O)N([C@H](C)CO)C[C@@H]1C |  | -19.2% (inactive) | AC50 [1, 3]: > 42 µM
5 | CCCNC(=O)C[C@H]1CC[C@@H]2[C@@H](COc3ccc(NC(=O)CCC)cc3C(=O)N2C)O1 |  | 2.55% (inactive) | 
6 | COc1ccccc1CN1CC[C@@H]2[C@H]1c1cc(C#Cc3ccccc3)ccc1N[C@@H]2CO | 20.7 |  | AC50 [1]: 20.7 µM
7 | N#Cc1ccc(-c2ccc3c(c2)[C@H]2[C@H](CCN2C(=O)C2CCCCC2)[C@H](CO)N3)cc1 | 20.8 |  | AC50 [1]: 20.8 µM
8 | CN1c2ccc(C#Cc3cccnc3)cc2[C@H]2[C@H](CCN2C(=O)C2CCC2)[C@@H]1CO |  | -15.9% (inactive) | 
9 | C[C@@H](O)C#Cc1ccc2c(c1)O[C@@H](CN(C)Cc1ccncc1)[C@@H](C)CN([C@@H](C)CO)S2(=O)=O |  | 1.8% (inactive) | 
10 | C[C@@H](O)C#Cc1ccc2c(c1)O[C@@H](CN(C)Cc1ccccc1)[C@@H](C)CN([C@@H](C)CO)S2(=O)=O |  | -38% (inactive) | 
11 | C[C@@H](O)C#Cc1ccc2c(c1)O[C@@H](CN(C)Cc1cccnc1)[C@@H](C)CN([C@@H](C)CO)S2(=O)=O |  | 6.15% (inactive) | 
12 | C[C@H](O)C#Cc1ccc2c(c1)O[C@@H](CN(C)Cc1ccccc1)[C@H](C)CN([C@@H](C)CO)S2(=O)=O | > 42 | -8.31% (inactive) | AC50 [1, 3]: > 42 µM
13 | C[C@H](O)C#Cc1ccc2c(c1)O[C@H](CN(C)Cc1ccc(-c3ccccc3)cc1)[C@H](C)CN([C@@H](C)CO)S2(=O)=O | > 42 | -17.3% (inactive) | AC50 [1, 3]: > 42 µM
14 | CO[C@H]1CN(C)C(=O)c2ccc(NC(=O)c3ccc(F)cc3)cc2OC[C@H](C)N(C(=O)c2ccc(F)cc2)C[C@@H]1C | 15.6 |  | AC50 [1]: 15.6 µM
15 | COc1ccccc1CN1CC[C@@H]2[C@H]1c1cc(-c3ccc(C(=O)N(C)C)cc3)ccc1N[C@@H]2CO | > 42 | -27.4% (inactive) | 
16 | O=C(Nc1ccc2c(c1)[C@@H]1C[C@@H](CC(=O)N3CCc4ccccc4C3)O[C@@H](CO)[C@@H]1O2)Nc1ccccc1F |  |  | activity change, negative = inhibition ([2]; at 19.5 µM (top of the series)): -50.6% (inactive)
17 | C[C@H](O)C#Cc1ccc2c(c1)O[C@@H](CN(C)Cc1ccccc1)[C@@H](C)CN([C@H](C)CO)S2(=O)=O |  | 16.5% (inactive) | 
18 | C[C@@H](O)C#Cc1ccc2c(c1)O[C@H](CN(C)Cc1ccccc1)[C@@H](C)CN([C@@H](C)CO)S2(=O)=O | > 42 | -5.1% (inactive) | 
19 | C[C@H](O)C#Cc1ccc2c(c1)O[C@@H](CN(C)Cc1ccccc1)[C@@H](C)CN([C@@H](C)CO)S2(=O)=O |  | -2.82% (inactive) | 
20 | C[C@H](CO)N1C[C@H](C)[C@H](CN(C)Cc2ccccc2)Oc2cc(C#C[C@@H](C)O)ccc2S1(=O)=O |  | 1.54% (inactive) | 
21 | CN1c2ccc(C#Cc3cccnc3)cc2[C@H]2[C@H](CCN2C(=O)C2CCCCC2)[C@@H]1CO |  | 9.03% (inactive) | 
22 | C[C@@H]1CN([C@H](C)CO)S(=O)(=O)c2ccc(C#C[C@@H](C)O)cc2O[C@@H]1CN(C)Cc1ccccc1 |  | -2.36% (inactive) | 
23 | C[C@H](O)C#Cc1ccc2c(c1)O[C@@H](CN(C)Cc1ccccc1)[C@H](C)CN([C@H](C)CO)S2(=O)=O | > 42 | -12.7% (inactive) | AC50 [1, 3]: > 42 µM
24 | C[C@H](CO)N1C[C@H](C)[C@@H](CN(C)Cc2ccc(-c3ccccc3)cc2)Oc2cc(C#C[C@@H](C)O)ccc2S1(=O)=O | > 42 | -19.5% (inactive) | 
25 | CN1c2ccc(-c3ccc(C#N)cc3)cc2[C@H]2[C@H](CCN2C(=O)C2CCCCC2)[C@@H]1CO | 18.9 |  | AC50 [1]: 18.9 µM; AC50 [1, 3]: 20.5 µM
26 | CN1c2ccc(C#Cc3cccnc3)cc2[C@H]2[C@H](CCN2C(=O)C2CCCCC2)[C@H]1CO |  | 19.5% (inactive) | 
27 | N#Cc1ccc(-c2ccc3c(c2)[C@@H]2[C@@H](CCN2C(=O)C2CCCCC2)[C@@H](CO)N3)cc1 |  | -10.8% (inactive) | AC50 [1, 3]: > 42 µM
28 | COc1ccccc1CN1CC[C@H]2[C@H](CO)Nc3ccc(-c4ccc(C(=O)N(C)C)cc4)cc3[C@H]21 | > 42 | -16.1% (inactive) | 
29 | COc1ccccc1CN1CC[C@@H]2[C@@H](CO)Nc3ccc(C#Cc4ccccc4)cc3[C@@H]21 | 20.9 |  | AC50 [1]: 20.9 µM
